Earlier results on 60 compounds are cited in Sander's compilation of Henry's law constants.

Several values for one entry are separate records, joined by “and”; a condition that tells them apart may be missing. Equal values may be shown once.

The nature of the series: Henry solubility constant Hcp at 298.15 K (mol/(m3 Pa)). The conditions noted are these: cited value.
[1] abbreviates: reference: Fogg and Sangster (2003).
Where [2] appears, read: reference: Barcelo and Hennion (1997).
Setting [3] is: reference: Burkholder et al. (2015).
Setting [4] is: reference: Burkholder et al. (2019).
The mark [5] stands for this setting: reference: Sander et al. (2006).
Setting [6] is: reference: Sander et al. (2011).
The mark [7] stands for this setting: reference: Mackay et al. (1992b).
[8] abbreviates: reference: Mackay et al. (1995).
[9] abbreviates: reference: Wania and Dugani (2003).

For `Brc1ccccc1` [bromobenzene], the “Henry solubility constant Hcp” value reads like this: (reference: Brockbank (2013)) 0.0043; under setting [1], 0.005; (reference: HSDB (2015)) 0.0047.
As to `CC(C1CC1)C(O)(Cn1cncn1)c1ccc(Cl)cc1` (stereo unspecified) [cyproconazole], the “Henry solubility constant Hcp” value under setting [2] is 130.
For `Oc1ccc(Cl)cc1Cl` [2,4-dichlorophenol], the “Henry solubility constant Hcp” value (reference: Goldstein (1982)) is 1.5.
On to `C1CCCC1` [cyclopentane], for which the “Henry solubility constant Hcp” value (reference: Brockbank (2013)) is 5.8e-05.
As to `CC(C)NC(=O)N1CC(=O)N(c2cc(Cl)cc(Cl)c2)C1=O` [iprodione], the “Henry solubility constant Hcp” value under setting [2] is 710.
`CC(C)OC(C)C` [diisopropyl ether]: the “Henry solubility constant Hcp” value (reference: Brockbank (2013)) was 0.0045.
Take `CCCCCCCCSC(=O)Oc1cc(Cl)nnc1-c1ccccc1` [pyridate]: under setting [2], the “Henry solubility constant Hcp” value is 300.
`C1CCOCC1` [tetrahydropyran]: the “Henry solubility constant Hcp” value (reference: Brockbank (2013)) is 0.081.
Regarding `COP(=O)(NC(C)=O)SC` (stereo unspecified) [acephate], under setting [2], the “Henry solubility constant Hcp” value was 190000.
With `CCCC` [butane], the “Henry solubility constant Hcp” value under setting [3] is 1.2e-05; the “Henry solubility constant Hcp” value under setting [4] was 1.2e-05; the “Henry solubility constant Hcp” value (reference: Deno and Berkheimer (1960)) is 1.1e-05; the “Henry solubility constant Hcp” value (reference: Hayduk (1986)) was 1.2e-05; the “Henry solubility constant Hcp” value under setting [5] was 1.2e-05; the “Henry solubility constant Hcp” value under setting [6] was 1.2e-05.
For `[Cl][Hg][Cl]` [mercury dichloride], the “Henry solubility constant Hcp” value reads like this: (reference: Kanefke (2008)) 13000; (reference: Lindqvist and Rodhe (1985)) 14000; (reference: Shon et al. (2005)) 240000; (reference: WHO (1990)) 14000.
As for `FC(F)(F)Cl` [chlorotrifluoromethane], the “Henry solubility constant Hcp” value is 9.9e-06 under setting [3], 9.9e-06 under setting [4] and 9.9e-06 under setting [6].
As to `CCc1ccc2ccccc2c1` [2-ethylnaphthalene], under setting [7], the “Henry solubility constant Hcp” value is 0.013.
As for `CCNC(=O)[C@@H](C)OC(=O)Nc1ccccc1` [carbetamide], the “Henry solubility constant Hcp” value under setting [2] is 1.1.
On to `Cc1ccc(C)cc1` [1,4-dimethylbenzene], for which the “Henry solubility constant Hcp” value was 0.0014 (reference: Brockbank (2013)), 0.0019 under setting [1] and 0.0014 (reference: Foster et al. (1994)).
As for `CCCCO[N+](=O)[O-]` [1-butyl nitrate], the “Henry solubility constant Hcp” value is, setting by setting: under setting [3], 0.01; under setting [4], 0.01; under setting [5], 0.01; under setting [6], 0.01.
With `CF` [fluoromethane], the “Henry solubility constant Hcp” value (reference: Brockbank (2013)) is 0.00062; the “Henry solubility constant Hcp” value under setting [3] is 0.00061; the “Henry solubility constant Hcp” value under setting [4] was 0.00061; the “Henry solubility constant Hcp” value under setting [5] is 0.00061; the “Henry solubility constant Hcp” value under setting [6] was 0.00061.
On to `Clc1ccc2ccccc2c1` [2-chloronaphthalene], for which, under “reference: Goldstein (1982)”, the “Henry solubility constant Hcp” value was 0.016.
For the compound `CCCCOC(C)=O` [butyl ethanoate], the “Henry solubility constant Hcp” value is, setting by setting: (reference: Brockbank (2013)) 0.038; (reference: Goldstein (1982)) 0.021.
`O=Cc1ccccc1` [benzaldehyde]: the “Henry solubility constant Hcp” value is 0.4 (reference: Brockbank (2013)); 0.36 (reference: Gaffney and Senum (1984)).
For `COP(=S)(OC)Oc1ccc([N+](=O)[O-])c(C)c1` [fenitrothion], under setting [2], the “Henry solubility constant Hcp” value was 2.7.
Take `Nc1ccc(Cl)cc1` [1-amino-4-chlorobenzene]: for the setting “reference: Howard (1989)”, the “Henry solubility constant Hcp” value is 0.92.
With `O=[N+]([O-])c1ccccc1O` [2-nitrophenol], under “reference: Goldstein (1982)”, the “Henry solubility constant Hcp” value was 0.69.
In the case of `O=C(O)c1ccccc1` [benzenecarboxylic acid], the “Henry solubility constant Hcp” value is 140 (reference: Goldstein (1982)) and 140 (reference: Howard (1989)).
As to `CC(=O)OO` [ethanoic peroxyacid], the “Henry solubility constant Hcp” value is 8.3 under setting [3], 8.3 under setting [4] and 8.3 under setting [6].
Take `c1ccc2c(c1)oc1ccccc12` [dibenzofuran]: the “Henry solubility constant Hcp” value is, setting by setting: (reference: Brockbank (2013)) 0.074; under setting [7], 0.091.
As to `c1ccc2ncccc2c1` [benzo[b]pyridine], for the setting “reference: Goldstein (1982)”, the “Henry solubility constant Hcp” value was 37.
For the compound `CN(C)C(=O)Nc1cccc(C(F)(F)F)c1` [fluometuron], the “Henry solubility constant Hcp” value (reference: HSDB (2015)) was 3800.
Take `Cc1cccc(C=O)c1` [3-methylbenzaldehyde]: where the note is “reference: Brockbank (2013)”, the “Henry solubility constant Hcp” value is 0.35.
In the case of `CC(C)CCC(C)(C)C` [2,2,5-trimethylhexane], the “Henry solubility constant Hcp” value (reference: Brockbank (2013)) is 1.9e-06.
On to `ClC1C(Cl)C(Cl)C(Cl)C(Cl)C1Cl` (stereo not drawn) [α-1,2,3,4,5,6-hexachlorocyclohexane], for which the “Henry solubility constant Hcp” value (reference: Xiao et al. (2004)) is 1.5 and 1.4.
On to `O=[O+][O-]` [ozone], for which the “Henry solubility constant Hcp” value is, setting by setting: (reference: Biń (2005)) 7.6e-05; under setting [3], 0.0001; under setting [4], 0.0001; (reference: Perry and Chilton (1973)) 0.00012; under setting [5], 0.0001; under setting [6], 0.0001. Also, where the note is “reference: Warneck (2003)”, the “Henry solubility constant Hcp” value is 0.00011.
As for `FN(F)F` [nitrogen trifluoride], the “Henry solubility constant Hcp” value under setting [3] was 7.9e-06, the “Henry solubility constant Hcp” value under setting [4] was 7.9e-06 and the “Henry solubility constant Hcp” value under setting [6] is 7.9e-06.
On to `c1ccc2cc3ccccc3cc2c1` [anthracene], for which the “Henry solubility constant Hcp” value is, setting by setting: (reference: Brockbank (2013)) 0.33; under setting [1], 0.17; (reference: Goldstein (1982)) 0.35; (reference: McCarty (1980)) 0.007; (reference: Smith et al. (1981a)) 0.1.
With `OCc1ccccc1` [(hydroxymethyl)-benzene], the “Henry solubility constant Hcp” value (reference: Howard (1993)) is 25.
Take `Cc1[nH]c(=O)n(C(C)(C)C)c(=O)c1Cl` [terbacil]: the “Henry solubility constant Hcp” value under setting [2] is 550.
Turning to `O=NN(c1ccccc1)c1ccccc1` [N-nitrosodiphenylamine], under setting [8], the “Henry solubility constant Hcp” value was 0.015.
For the compound `Brc1ccc(Oc2ccc(Br)cc2)cc1` [4,4'-dibromodiphenyl ether], the “Henry solubility constant Hcp” value under setting [9] is 0.24.
As for `Cc1cccc(O)c1` [1-hydroxy-3-methylbenzene], the “Henry solubility constant Hcp” value is 12 (reference: Brockbank (2013)) and 11 (reference: Howard (1989)).
Regarding `CC(Cl)CCl` (stereo unspecified) [1,2-dichloropropane], the “Henry solubility constant Hcp” value is 0.0034 (reference: Brockbank (2013)); 0.0034 under setting [3]; 0.0034 under setting [4]; 0.0034 (reference: Goldstein (1982)); 0.0035 (reference: Horvath and Getzen (1999)).
As to `Cc1cccc(C)c1` [1,3-dimethylbenzene], the “Henry solubility constant Hcp” value (reference: Brockbank (2013)) is 0.0015.
For the compound `CCCCCCCc1ccccc1` [heptylbenzene], the “Henry solubility constant Hcp” value (reference: Brockbank (2013)) was 0.00027.
For `II` [iodine (molecular)], the “Henry solubility constant Hcp” value is 0.031 (reference: Berdnikov and Bazhin (1970)); 0.03 (reference: Palmer et al. (1985)); 0.011 (reference: Thompson and Zafiriou (1983)).
Take `FC(F)Cl` [chlorodifluoromethane]: the “Henry solubility constant Hcp” value is, setting by setting: under setting [3], 0.00035; under setting [4], 0.00035; under setting [6], 0.00034.
As to `CCCCCCCCC` [nonane], the “Henry solubility constant Hcp” value (reference: Brockbank (2013)) was 2.3e-06.
`O=C1CCCC1` [cyclopentanone]: where the note is “reference: Brockbank (2013)”, the “Henry solubility constant Hcp” value is 1.2.
`Nc1ccc(-c2ccc(N)cc2)cc1` [benzidine]: the “Henry solubility constant Hcp” value under setting [8] is 25.
For `O=C(O)C(Br)Br` [dibromoethanoic acid], the “Henry solubility constant Hcp” value is 2300 under setting [3], 2300 under setting [4] and 2300 under setting [6].
For the compound `Brc1ccc(Oc2ccc(Br)cc2Br)cc1` [2,4,4'-tribromodiphenyl ether], the “Henry solubility constant Hcp” value under setting [9] is 0.52.
For `CC(O)CO` (stereo unspecified) [1,2-propanediol], the “Henry solubility constant Hcp” value reads like this: under setting [3], 2700; under setting [4], 2700.
`CNC(C)=O` [N-methylacetamide]: the “Henry solubility constant Hcp” value was 2100 under setting [3] and 2100 under setting [4].
For `CCCCOCCOCCOCCCC` [diethylene glycol dibutyl ether], the “Henry solubility constant Hcp” value (reference: Brockbank (2013)) was 2.5.
Turning to `Clc1ccc(Cl)c(-c2cc(Cl)ccc2Cl)c1` [2,2',5,5'-tetrachlorobiphenyl], the “Henry solubility constant Hcp” value (reference: Murphy et al. (1983b)) was 0.038.
`CCCCC(=O)OCC` [ethyl pentanoate]: the “Henry solubility constant Hcp” value (reference: Meynier et al. (2003)) is 0.027.
On to `CC(C)=CC1C(C(=O)OCc2cccc(Oc3ccccc3)c2)C1(C)C` (stereo unspecified) [phenothrin], for which the “Henry solubility constant Hcp” value (reference: MacBean (2012b)) was 1.5.
`C=Cc1ccccc1` [ethenylbenzene]: the “Henry solubility constant Hcp” value was 0.0036 (reference: Brockbank (2013)), 0.0038 under setting [1] and 0.0038 (reference: Goldstein (1982)).
`CCCCC(C)O` (stereo unspecified) [2-hexanol]: the “Henry solubility constant Hcp” value (reference: Brockbank (2013)) is 0.39.
For `C=CCSC` [allyl methyl sulfide], the “Henry solubility constant Hcp” value is 0.0042 under setting [3] and 0.0042 under setting [4].
Regarding `Cc1cccc2ccccc12` [1-methylnaphthalene], the “Henry solubility constant Hcp” value is 0.02 (reference: Brockbank (2013)) and 0.022 under setting [1].
For `CC(C)(C)c1cc([N+](=O)[O-])cc([N+](=O)[O-])c1O` [dinoterb], under setting [2], the “Henry solubility constant Hcp” value was 1.7.
